Results as given in patent US20220153732A1, “PROTEIN SECRETION INHIBITORS” (KEZAR LIFE SCIENCES, priority 2019, published 2022).
Read-outs that look alike come from different tables or passages of the source.

Experiments:
Assay type in all cases: cell-based
[1] = system: PD1-ss+10aa/Gaussia Luciferase; experiment: Dox-Induced PD1-ss-Gluc Assay; details: 293FRT/TO cells, read-out: 24 hr Dox Inducible PD1ssGluc 293FRT/TO: Mean IC50
Summary of the method: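 Stable cell line carrying PD1-ss+10aa/Gaussia luciferase cDNA under T-REx (doxycycline-inducible) control, plated the day before assay. Compound dilutions in DMSO/media containing doxycycline added and incubated at 37° C, 5% CO2. Undefined stereocentres: data refer to stereoisomer mixtures.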

[2] = system: human multiple myeloma cell line NCI-H929; experiment: H929 Cell Viability Assay; details: 48 hr, NCI-H929 cells, Celltiter-Glo, read-out: 48 hr H929 Viability Celltiter-Glo: Mean EC50
Description: Plates were incubated at 37° C., 5% CO2 for 48 hours. After 48 hours, Celltiter-Glo® (Promega) was added to each well and luciferase signal was quantified using Tecan Infinite M1000 Pro for cell viability determination.
For chemical structures that include one or more stereoisomers, but are illustrated without indicating stereochemistry, the assay data refers to a mixture of stereoisomers.

[3] = system: human multiple myeloma cell line U266B1; experiment: U266 Cell Viability Assay; details: U-266, 48 hr, U266B1 cells, Celltiter-Glo, read-out: 48 hr U266 Viability Celltiter-Glo: Mean EC50
Summary of the method: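 U266B1 myeloma cells treated with compound dilutions in DMSO/media for 48 h at 37 °C, 5% CO2. Viability read by CellTiter-Glo luminescence. Stereochemically undefined structures were tested as stereoisomer mixtures.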

[4] = system: IL-2-FL/Gaussia Luciferase; experiment: Dox Induced IL2-FL-Gluc Assay; details: 293FRT/TO cells, read-out: 24 hr Dox Inducible IL2FLGIuc 293FRT/TO: Mean IC50
Summary of the method: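 Stable T-REx cell line expressing doxycycline-inducible IL-2-FL/Gaussia luciferase cDNA, plated the day before assay. Compound dilutions in DMSO/media containing doxycycline added and incubated at 37° C., 5% CO2. Unspecified stereochemistry means data refer to a stereoisomer mixture.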

[5] = system: TNFα-FL/Gaussia Luciferase; experiment: Dox Induced TNFα-FL-Gluc Assay; details: 293FRT/TO cells, read-out: 24 hr Dox Inducible TNFaFLGluc 293FRT/TO: Mean IC50
Summary of the method: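 A stable T-REx cell line carrying doxycycline-inducible TNFα-FL/Gaussia luciferase was plated the day before assay. Compound dilutions in DMSO/media containing doxycycline were then added and incubated at 37° C, 5% CO2.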

[6] = system: HER3-ss+4aa/Gaussia Luciferase; experiment: Dox-Induced Her3-ss-Gluc Assay; details: 293FRT/TO cells, read-out: 24 hr Dox Inducible Her3(ss + 4)Gluc 293FRT/TO: Mean IC50
Summary of the method: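 Stable T-REx cell line carrying a doxycycline-regulated HER3-ss+4aa/Gaussia luciferase insert, plated the day before assay. Compound dilutions in DMSO/media with doxycycline added, then incubated at 37° C., 5% CO2. Stereoisomer mixtures tested where stereochemistry is not drawn.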

[7] = 24 hr doxycycline induction, Gaussia luciferase signal

IC50 [1, 7] [µM] | EC50 [2] [µM] | EC50 [3] [µM] | IC50 [4, 7] [µM] | IC50 [5, 7] [µM] | IC50 [6, 7] [µM] | IC50 ([1]; 24 hr, doxycycline-induced) [µM] | IC50 ([4]; 24 hr, doxycycline-induced) [µM] | IC50 ([5]; 24 hr, doxycycline-induced) [µM] | IC50 ([6]; 24 hr, doxycycline-induced) [µM] | SMILES
0.161 | 10.4 | > 25 | 0.599 | 1.74 | 0.463 |  |  |  |  | O=C(Nc1nc([C@H]2CCC[C@@H](c3ccccc3)C2)cs1)c1cccn1Cc1ccncc1 [Compound A270]
 | 2.54 | > 25 |  |  |  | 0.025 | 0.057 | 0.427 | 0.064 | O=C(Nc1nc([C@H]2CCCN2c2ccccn2)cs1)c1cccn1Cc1ccncc1 [Compound A317]
 | 18.3 | 18.9 |  |  |  | 0.005 | 0.846 | 3.56 | 0.692 | O=C(Nc1nc(/C=C/c2ncc(OC3CCCC3)cc2F)cs1)c1cccn1Cc1ccncc1 [Compound A295]
0.261 | 15.2 | 20.8 | 1.4 | 4.02 | 0.648 |  |  |  |  | O=C(Nc1nc([C@H]2CCN(c3ccccc3)C2)cs1)c1cccn1Cc1ccncc1 [Compound A290]
 | 13.5 | > 25 |  |  |  | 0.26 | 0.45 | 1.67 | 0.482 | O=C(Nc1nc([C@@H]2CCCC[C@@H]2c2ccccc2)cs1)c1cccn1Cc1ccncc1 [Compound A298]
0.318 | > 25 | > 25 | 1.56 | 18.8 | 1.91 |  |  |  |  | O=C(Nc1nc(-c2ccccc2)cs1)c1cccn1Cc1ccncc1 [Compound A216, N-(4-phenylthiazol-2-yl)-1-(pyridin-4-ylmethyl)-1H-pyrrole-2-carboxamide]
 | 23.8 | 20.3 |  |  |  | 0.042 | 9.58 | 13.1 | 6.01 | Cc1cccnc1/C=C/c1csc(NC(=O)c2cccn2Cc2ccncc2)n1 [Compound A347]
0.281 | > 25 | > 25 | > 25 | > 25 | 0.596 |  |  |  |  | O=C(Nc1nc(C2=Cc3ccccc3C2)cs1)c1cccn1Cc1ccncc1 [Compound A242, N-(4-(1H-inden-2-yl)thiazol-2-yl)-1-(pyridin-4-ylmethyl)-1H-pyrrole-2-carboxamide]
0.241 | > 25 | > 25 | 1.05 | 5.41 | 0.565 |  |  |  |  | COc1cccc(C#Cc2csc(NC(=O)c3cccn3Cc3ccncc3)n2)c1 [Compound A142]
0.246 | > 25 | > 25 | 0.529 | 8.54 | 0.492 |  |  |  |  | O=C(Nc1nc(C(F)(F)F)cs1)c1cccn1Cc1ccncc1 [Compound A19, 1-(pyridin-4-ylmethyl)-N-(4-(trifluoromethyl)thiazol-2-yl)-1H-pyrrole-2-carboxamide]

The next lines start with the compound.

SMILES | IC50 [1, 7] [µM] | EC50 [2] [µM] | EC50 [3] [µM] | IC50 [4, 7] [µM] | IC50 [5, 7] [µM] | IC50 [6, 7] [µM] | IC50 ([1]; 24 hr, doxycycline-induced) [µM] | IC50 ([4]; 24 hr, doxycycline-induced) [µM] | IC50 ([5]; 24 hr, doxycycline-induced) [µM] | IC50 ([6]; 24 hr, doxycycline-induced) [µM]
CC(C)OC(C)(C)c1csc(NC(=O)c2cccn2Cc2ccncc2F)n1 [Compound A25, 1-((3-fluoropyridin-4-yl)methyl)-N-(4-(2-isopropoxypropan-2-yl)thiazol-2-yl)-1H-pyrrole-2-carboxamide] | 0.314 | > 25 | > 25 | 0.49 | 9.98 | 0.692 |  |  |  | 
CC(C)OC(C)(C)c1csc(NC(=O)c2cccn2[C@@H](C)c2ccncc2)n1 [Compound A74, (S)-N-(4-(2-isopropoxypropan-2-yl)thiazol-2-yl)-1-(1-(pyridin-4-yl)ethyl)-1H-pyrrole-2-carboxamide] | 2.57 | > 25 | > 25 | 4.22 | > 25 | 5.39 |  |  |  | 
CC(C)OC(C)(C)c1csc(NC(=O)c2cccn2CC2CNC(=O)C2)n1 (stereo not drawn) [Compound A93, N-(4-(2-isopropoxypropan-2-yl)thiazol-2-yl)-1-((5-oxopyrrolidin-3-yl)methyl)-1H-pyrrole-2-carboxamide] | 13.2 | > 25 | > 25 | > 25 | > 25 | > 25 |  |  |  | 
O=C(Nc1nc([C@H]2CCC(=O)N2c2ccccc2)cs1)c1cccn1Cc1ccncc1 [Compound A319] |  | > 25 | > 25 |  |  |  | 1.31 | 1.84 | 16 | 2.72
COc1cc(Cn2cccc2C(=O)Nc2nc(C(C)(C)OC(C)C)cs2)cc(F)n1 [Compound A70, 1-((2-fluoro-6-methoxypyridin-4-yl)methyl)-N-(4-(2-isopropoxypropan-2-yl)thiazol-2-yl)-1H-pyrrole-2-carboxamide] | 2.23 | > 25 | > 25 | 5.67 | > 25 | 9.39 |  |  |  | 
O=C(Nc1nc([C@@H]2CCCN2c2ccccc2)cs1)c1cccn1Cc1ccncc1Cl [Compound A318] |  | 6.04 | > 25 |  |  |  | 0.049 | 0.184 | 0.817 | 0.097
CC(C)OC(C)(C)c1csc(NC(=O)c2cccn2CC2CCOCC2)n1 [Compound A71] | 2.28 | > 25 | > 25 | 3.54 | > 25 | 5.44 |  |  |  | 
CC(C)OC(C)(C)c1csc(NC(=O)c2cccn2Cc2ccc(=O)n(C)c2)n1 [Compound A124, N-(4-(2-isopropoxypropan-2-yl)thiazol-2-yl)-1-((1-methyl-6-oxo-1,6-dihydropyridin-3-yl)methyl)-1H-pyrrole-2-carboxamide] | > 25 | > 25 | > 25 | > 25 | > 25 | > 25 |  |  |  | 
CC(C)OC(C)(C)c1csc(NC(=O)c2cccn2Cc2ccnnc2)n1 [Compound A69, N-(4-(2-isopropoxypropan-2-yl)thiazol-2-yl)-1-(pyridazin-4-ylmethyl)-1H-pyrrole-2-carboxamide] | 2.08 | > 25 | > 25 | 4.17 | > 25 | 6.22 |  |  |  | 
CC(C)OC(C)(C)c1csc(NC(=O)c2cccn2CCCc2ccccc2)n1 [Compound A64, N-(4-(2-isopropoxypropan-2-yl)thiazol-2-yl)-1-(3-phenylpropyl)-1H-pyrrole-2-carboxamide] | 1.73 | 23.2 | > 25 | 2.72 | > 25 | 3.48 |  |  |  | 
CCc1nc(NC(=O)c2cccn2Cc2ccccc2Cl)sc1C [Compound B7, 1-(2-chlorobenzyl)-N-(4-ethyl-5-methylthiazol-2-yl)-1H-pyrrole-2-carboxamide] |  | > 25 | > 25 |  |  |  | 9.07 | 24.3 | > 25 | 20
CC(C)OC(C)(C)c1csc(NC(=O)c2cccn2CC2CCN(C)CC2)n1 [Compound A129, N-(4-(2-isopropoxypropan-2-yl)thiazol-2-yl)-1-((1-methylpiperidin-4-yl)methyl)-1H-pyrrole-2-carboxamide] | > 25 | > 25 | > 25 | > 25 | > 25 | > 25 |  |  |  | 
C[C@]1(c2csc(NC(=O)c3cccn3Cc3ccncc3)n2)CCCN1c1ccccc1 [Compound A338] |  | 14.8 | > 25 |  |  |  | 0.205 | 0.345 | 1.85 | 0.264
